Source: patent publication US20060287316A1, “METHOD FOR IMPROVING PHARMACOKINETICS OF PROTEASE INHIBITORS AND PROTEASE INHIBITOR PRECURSORS” (priority 2005, published 2006)

Tests used:
[1] = Plasma concentration after single oral dose in rats (in vivo cleavage of the phosphate group); design: species or system male Sprague-Dawley rats; details: 50 mg/Kg po, vehicle Mix, 3 rats
Experimental: To assess the extent of in vivo cleavage of the phosphate group from the putative compounds, PL-100, PL-462 (based on PL-100), PL-337 and PL-515 (based on PL-337) compounds were administered po (per os, (i.e., by mouth)) (50 mg/kg) to male Sprague-Dawley rats and their plasma concentration measured at different time intervals post-administration.
All test articles (PL-100, PL-462, PL-337 and PL-515) were prepared in different vehicle at the final concentration of 25 mg/mL. The vehicle composition is as follows: (1) 20% ethanol; 50% propylene glycol; 0.05% w/v Tween 20 and water (Mix); (2) PBS buffer (PBS).
Test articles were administered to male Sprague-Dawley rats at a single oral dose of 50 mg/kg. Each article was tested in three rats. Blood samples (0.2-0.3 mL) were collected at the post-dose time of 10, 20, 40, 60, 120, 180 and 360 minutes. The harvested blood was centrifuged to isolate plasma. The resulting plasma was separated and stored at −70° C.
Plasma samples together with standards and quality control samples were treated to precipitate proteins, then analyzed by HPLC-MS, for the presence of PL-462, PL-100, PL-515 and PL-337.

[2] = Cytotoxicity in the same cell culture system; assay type: cell-based; details: human, MT4 cells
Experimental: Cytotoxicity of PL-100 and other P is was evaluated in the same cell culture system. The selectivity index (SI) is the ratio of cytotoxicity (CC50) to antiviral activity (EC50). The selective index is similar to the therapeutic index but relates to in vitro studies.

## COC(=O)N[C@H](C(=O)NCCCC[C@@H](CO)N(CC(C)C)S(=O)(=O)c1ccc(N)cc1)C(c1ccccc1)c1ccccc1 [PL-100, (1S,5S)-(1-{5-[(4-amino-benzenesulfonyl)-isobutyl-amino]-6-hydroxy-hexylcarbamoyl}-2,2-diphenyl-ethyl)-carbamic acid methyl ester]
[1]
  AUC: 0.675 ± 0.171 μg/hr * ml
  Cmax: 498 ± 203 nM
  Tmax: 40 ± 16 min
[2]
  CC50: 33 µM
